Among the data in patent publication US10202360B2 (CELGENE QUANTICEL RESEARCH, INC., priority 2016, dated 2019) are IC50 values, retold here.

Some results are limits rather than exact numbers.

This assay addresses CREBBP (Homo sapiens (Human), UniProt Q92793). The experiment in a line: In vitro enzyme inhibition assay - CREBBP inhibition (AlphaScreen, biotinylated H4-tetraacetyl peptide). The class given is binding. The note with it: Table 28; AlphaScreen, H4-tetraacetyl peptide. The gist of the method: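 Displacement of 20 nM biotinylated tetraacetyl-H4 peptide from 50 nM E. coli-expressed His-CREBBP, measured by AlphaScreen after bead equilibration for 2 h.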

Chain of CREBBP (Q92793 1081-1197): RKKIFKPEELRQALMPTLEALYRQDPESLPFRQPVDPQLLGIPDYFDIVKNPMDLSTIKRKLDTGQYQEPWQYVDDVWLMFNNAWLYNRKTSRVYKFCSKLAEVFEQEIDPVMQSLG

For `CC[C@H](C)S(=O)(=O)Nc1cc(-c2ccc(=O)n(C)c2)nc(Oc2c(F)ccc(C)c2Cl)n1` [Example 224, (2S)-Butane-2-sulfonic acid [2-(2-chloro-6-fluoro-3-methyl-phenoxy)-6-(1-methyl-6-oxo-1,6-dihydro-pyridin-3-yl)-pyrimidin-4 yl]-amide], the IC50 is less than 500 nM.

With `CC[C@H](C)S(=O)(=O)Nc1cc(-c2ccc(=O)n(C)c2)nc(Oc2c(F)ccc(C)c2F)n1` [Example 225, (S)-N-(2-(2,6-difluoro-3-methylphenoxy)-6-(1-methyl-6-oxo-1,6-dihydropyridin-3-yl)pyrimidin-4-yl)butane-2-sulfonamide], the IC50 is less than 500 nM.

`CC[C@H](C)S(=O)(=O)Nc1cc(-c2ccc(=O)n(C)c2)nc(Oc2c(Cl)ccc(C)c2F)n1` [Example 226, (S)-Butane-2-sulfonic acid [2-(6-chloro-2-fluoro-3-methyl-phenoxy)-6-(1-methyl-6-oxo-1,6-dihydro-pyridin-3-yl)-pyrimidin-4-yl]-amide] yielded an IC50 of less than 500 nM.

On to `CCC[C@H](C)S(=O)(=O)Nc1cc(-c2ccc(=O)n(C)c2)nc(Oc2c(Cl)ccc(C)c2F)n1` [Example 227, (2S)-Pentane-2-sulfonic acid [2-(6-chloro-2-fluoro-3-methyl-phenoxy)-6-(1-methyl-6-oxo-1,6-dihydro-pyridin-3-yl)-pyrimidin-4-yl]-amide], for which the IC50 was less than 500 nM.

Turning to `CCC[C@H](C)S(=O)(=O)Nc1cc(-c2ccc(=O)n(C)c2)nc(Oc2c(F)ccc(C)c2Cl)n1` [Example 228, (2S)-Pentane-2-sulfonic acid [2-(2-chloro-6-fluoro-3-methyl-phenoxy)-6-(1-methyl-6-oxo-1,6-dihydro-pyridin-3-yl)-pyrimidin-4-yl]-amide], the IC50 was less than 500 nM.

Regarding `CC[C@H](C)S(=O)(=O)Nc1cc(-c2ccc(=O)n(C)c2)nc(Oc2c(F)cccc2F)n1` [Example 229, (S)-N-(2-(2,6-difluorophenoxy)-6-(1-methyl-6-oxo-1,6-dihydropyridin-3-yl)pyrimidin-4-yl)butane-2-sulfonamide], the IC50 was less than 500 nM.

The compound `CC[C@@H](C)S(=O)(=O)Nc1cc(-c2ccc(=O)n(C)c2)nc(Oc2c(F)cccc2F)n1` [Example 230, (R)-N-(2-(2,6-difluorophenoxy)-6-(1-methyl-6-oxo-1,6-dihydropyridin-3-yl)pyrimidin-4-yl)butane-2-sulfonamide] came in with a concentration for half-maximal inhibition (IC50) of less than 500 nM.

Turning to `Cn1cc(-c2cc(NS(=O)(=O)CCC(F)(F)F)nc(Oc3c(F)cccc3Cl)n2)ccc1=O` [Example 231, 3,3,3-Trifluoro-propane-1-sulfonic acid [2-(2-chloro-6-fluoro-phenoxy)-6-(1-methyl-6-oxo-1,6-dihydro-pyridin-3-yl)-pyrimidin-4-yl]-amide], the IC50 was less than 500 nM.

As to `Cn1cc(-c2cc(NS(=O)(=O)CCCC(F)(F)F)nc(Oc3c(F)cccc3Cl)n2)ccc1=O` [Example 232, 4,4,4-Trifluoro-butane-1-sulfonic acid [2-(2-chloro-6-fluoro-phenoxy)-6-(1-methyl-6-oxo-1,6-dihydro-pyridin-3-yl)-pyrimidin-4-yl]-amide], the IC50 is less than 500 nM.

As for `CCCCS(=O)(=O)Nc1cc(-c2ccc(=O)n(C)c2)nc(Oc2c(F)cccc2OC)n1` [Example 233, Butane-1-sulfonic acid [2-(2-fluoro-6-methoxy-phenoxy)-6-(1-methyl-6-oxo-1,6-dihydro-pyridin-3-yl)-pyrimidin-4-yl]-amide], the IC50 is less than 500 nM.

`COc1cccc(F)c1Oc1nc(NS(=O)(=O)C(C)C)cc(-c2ccc(=O)n(C)c2)n1` [Example 234, Propane-2-sulfonic acid [2-(2-fluoro-6-methoxy-phenoxy)-6-(1-methyl-6-oxo-1,6-dihydro-pyridin-3-yl)-pyrimidin-4-yl]-amide] gave an IC50 of less than 500 nM.

`CCCS(=O)(=O)Nc1cc(-c2ccc(=O)n(C)c2)nc(Oc2c(F)cccc2OC)n1` [Example 235, Propane-1-sulfonic acid [2-(2-fluoro-6-methoxy-phenoxy)-6-(1-methyl-6-oxo-1,6-dihydro-pyridin-3-yl)-pyrimidin-4-yl]-amide] displayed an IC50 of less than 500 nM.

In turn, `CCS(=O)(=O)Nc1cc(-c2ccc(=O)n(C)c2)nc(OC(C)C)n1` [Example 236, Ethanesulfonic acid [2-isopropoxy-6-(1-methyl-6-oxo-1,6-dihydro-pyridin-3-yl)-pyrimidin-4-yl]-amide] gave an IC50 of less than 500 nM.

`CCCS(=O)(=O)Nc1cc(-c2ccc(=O)n(C)c2)nc(OC(C)C)n1` [Example 237, Propane-1-sulfonic acid [2-isopropoxy-6-(1-methyl-6-oxo-1,6-dihydro-pyridin-3-yl)-pyrimidin-4-yl]-amide] yielded an IC50 of less than 500 nM.

The compound `CCS(=O)(=O)Nc1cc(-c2ccc(=O)n(C)c2)nc(Oc2c(F)cccc2C2CC2)n1` [Example 238, Ethanesulfonic acid [2-(2-cyclopropyl-6-fluoro-phenoxy)-6-(1-methyl-6-oxo-1,6-dihydro-pyridin-3-yl)-pyrimidin-4-yl]-amide] yielded an IC50 of less than 500 nM.

In turn, `CCCS(=O)(=O)Nc1cc(-c2ccc(=O)n(C)c2)nc(Oc2c(F)cccc2C2CC2)n1` [Example 239, Propane-1-sulfonic acid [2-(2-cyclopropyl-6-fluoro-phenoxy)-6-(1-methyl-6-oxo-1,6-dihydro-pyridin-3-yl)-pyrimidin-4-yl]-amide] had a half-inhibitory concentration (IC50) of less than 500 nM.

The compound `CCCCS(=O)(=O)Nc1cc(-c2ccc(=O)n(C)c2)nc(Oc2c(F)cccc2C2CC2)n1` [Example 240, Butane-1-sulfonic acid [2-(2-cyclopropyl-6-fluoro-phenoxy)-6-(1-methyl-6-oxo-1,6-dihydro-pyridin-3-yl)-pyrimidin-4-yl]-amide] displayed an IC50 of less than 500 nM.

Compound `CCCC(C)S(=O)(=O)Nc1cc(-c2ccc(=O)n(C)c2)nc(Oc2c(C)cccc2F)n1` (stereo not shown) [Example 241, Pentane-2-sulfonic acid [2-(2-fluoro-6-methyl-phenoxy)-6-(1-methyl-6-oxo-1,6-dihydro-pyridin-3-yl)-pyrimidin-4-yl]-amide] showed a concentration for half-maximal inhibition (IC50) of less than 500 nM.

Regarding `CCCC(C)S(=O)(=O)Nc1cc(-c2ccc(=O)n(C)c2)nc(Oc2c(F)cccc2Cl)n1` (stereo not shown) [Example 242, Pentane-2-sulfonic acid [2-(2-chloro-6-fluoro-phenoxy)-6-(1-methyl-6-oxo-1,6-dihydro-pyridin-3-yl)-pyrimidin-4-yl]-amide], the IC50 is less than 500 nM.

In the case of `CCCC(C)S(=O)(=O)Nc1cc(-c2ccc(=O)n(C)c2)nc(Oc2c(C)cccc2Cl)n1` (stereo not shown) [Example 243, Pentane-2-sulfonic acid [2-(2-chloro-6-methyl-pphenoxy)-6-(1-methyl-6-oxo-1,6-dihydro-pyridin-3-yl)-pyrimidin-4-yl]-amide], the IC50 was less than 500 nM.

Compound `CCCCS(=O)(=O)Nc1cc(-c2ccc(=O)n(C)c2)nc(OC2CCCCC2)n1` [Example 244, Butane-1-sulfonic acid [2-cyclohexyloxy-6-(1-methyl-6-oxo-1,6-dihydro-pyridin-3-yl)-pyrimidin-4-yl]-amide] came in with a concentration for half-maximal inhibition (IC50) of less than 500 nM.

For the compound `CCCS(=O)(=O)Nc1cc(-c2ccc(=O)n(C)c2)nc(OC2CCCCC2)n1` [Example 245, Propane-1-sulfonic acid [2-cylcohexyloxy-6-(1-methyl-6-oxo-1,6-dihydro-pyridin-3-yl)-pyrimidin-4-yl]-amide], the IC50 was less than 500 nM.
